Measurements from patent publication US20250051390A1, “NOVEL ADIPONECTIN-DERIVED PEPTOID DERIVATIVE AND USE THEREOF” (SEOUL NATIONAL UNIVERSITY HOSPITAL, priority 2021, published 2025).
≈ marks a conversion by molar mass, not a printed value. *1 amine or outer side, *2 acyl side, *3 side chain or, on linkers, in order; H or OH if unused. Where a SMILES comes first, the peptide text is derived from it. [ ]: non-standard residue; d: D form. Gly(N-4-hydroxybenzyl) = O=C(O)CNCc1ccc(O)cc1; X1 = O=C(CN(Cc1ccc(C(F)(F)F)cc1)[*:1])[*:2]; Gly(N-cPent) = O=C(O)CNC1CCCC1; Gly(NCH2cPr) = O=C(O)CNCC1CC1; N(cBu)Gly = O=C(O)CNC1CCC1; Nphe = O=C(O)CNCc1ccccc1

Legend:
AMPK phosphorylation [1] = experiment: AMPK phosphorylation activity in mouse adipocytes (Western blot); format: cell-based; conditions: 3T3-L1, 10 μM, 24 hours; for AMPK phosphorylation activity (fold change): Western blot, APN5 = 1.0
Procedure: There were confirmed effects of the peptoid derivative of the present disclosure on the expression and receptor activity of adiponectin in mouse adipocytes as a main adiponectin production site. A mouse adipocyte cell line 3T3-L1 was treated with each of the peptoid derivatives of the present disclosure at a concentration of 10 μM and cultured for 24 hours, and then cells were obtained. Thereafter, the protein was extracted and the effect of adiponectin on AMPK phosphorylation, which was responsible for the main downstream signaling, was confirmed by Western blot.

adiponectin receptor 1 = target: T1, adiponectin receptor 1 (Mus musculus, UniProt Q91VH1); experiment: Loss of AMPK phosphorylation activity after knockdown of adiponectin receptor 1; format: cell-based; conditions: 3T3-L1, adiponectin receptor 1 siRNA, 10 μM, 24 hours
T1 construct: a mouse adipocyte cell line 3T3-L1 was treated with siRNA of an adiponectin receptor 1 to be knocked down; endogenous in cells; host or cells: 3T3-L1 mouse adipocyte cell line
T1 sequence (Q91VH1 1-375): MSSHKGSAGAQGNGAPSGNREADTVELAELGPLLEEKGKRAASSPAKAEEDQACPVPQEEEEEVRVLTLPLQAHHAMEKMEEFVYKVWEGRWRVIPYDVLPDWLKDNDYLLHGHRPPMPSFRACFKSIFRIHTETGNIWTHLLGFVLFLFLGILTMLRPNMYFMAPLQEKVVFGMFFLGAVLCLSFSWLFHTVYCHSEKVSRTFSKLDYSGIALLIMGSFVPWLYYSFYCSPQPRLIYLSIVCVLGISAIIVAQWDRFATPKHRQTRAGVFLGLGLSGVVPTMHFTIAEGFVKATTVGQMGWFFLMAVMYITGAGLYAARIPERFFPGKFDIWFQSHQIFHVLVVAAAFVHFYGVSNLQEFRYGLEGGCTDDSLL
Procedure: In order to verify whether the peptoid derivative of the present disclosure bound to an adiponectin receptor 1, a mouse adipocyte cell line 3T3-L1 was treated with siRNA of an adiponectin receptor 1 to be knocked down, and each of the peptoid derivatives of the present disclosure was treated at a concentration of 10 μM and cultured for 24 hours, and then cells were obtained. Thereafter, the proteins were extracted and it was confirmed by Western blot whether AMPK phosphorylation activity, which had been increased by the peptoid derivatives, was lost.

in vitro [2] = conditions: mouse, microsomes, pH 7.4
Procedure: (§2) Three types of liver microsomes (Human, Rat, Mouse, 0.5 mg/ml), a 0.1 M phosphate buffer solution (pH 7.4), and the peptoid derivative of the present disclosure were added at a concentration of 1 μM and pre-cultured at 37° C. for 5 minutes, and then added with an NADPH Regeneration system solution and cultured at 37° C. for 30 minutes. Thereafter, to terminate the reaction, the mixture was added with an acetonitrile solution containing an internal standard material (chlorpropamide), centrifuged for 5 minutes (14,000 rpm, 4° C.), and then the supernatant was injected into the LC-MS/MS system to analyze a substrate drug, and thus metabolic stability was evaluated.
(§3) The amount of substrate remaining through the reaction was analyzed by LC-MS/MS using Agilent 1290 infinity series pump system (Agilent, USA) and Triple Quad 5500 LC-MS/MS system (Applied Biosystems, USA). The HPLC column was used with a Kinetex C18 column (2.1×100 mm, 1.7 μm particle size; Phenomenex, USA), and the mobile phase was distilled water (A) containing 0.1% formic acid and acetonitrile (B) containing 0.1% formic acid. TurboSpray Ionization was used as an ion source for MS/MS, and a triple quadruple type was used as a mass spectrometer. The produced metabolites were quantified using a multiple reaction monitoring (MRM) quantitative mode, and data analysis was performed using Analyst software (version 1.6.1).

in vitro [3] = conditions: rat, plasma
Procedure: (§4) The peptoid derivative of the present disclosure was added at a concentration of 1 μM to two types of plasma (human, rat), placed in each tube, and then cultured at 37° C. for time of 0, 30, 60, 120, and 240 minutes. The tube containing plasma was taken out every time, added with an acetonitrile solution containing an internal standard material (chlorpropamide), vortexed for 5 minutes, and centrifuged for 5 minutes (14,000 rpm, 4° C.). Thereafter, the plasma stability of the peptoid derivative was evaluated by injecting the supernatant into an LC-MS/MS system and analyzing the drug at each time period. At this time, Procaine and Enalapril were used as reference materials for accuracy during a general plasma stability test.
(§5) After the reaction, the amount of drug remaining in each tube was analyzed by LC-MS/MS using Shimadzu Nexera XR system and TSQ vantage (Thermo). The HPLC column was used with a Luna C18 column (2.0×50 mm, 3 μm particle size; Phenomenex, US), and the mobile phase was distilled water (A) containing 0.1% formic acid and acetonitrile (B) containing 0.1% formic acid. Data analysis was performed using Xcalibur (version 1.6.1). In the result analysis, the plasma stability of each peptoid derivative was expressed as % remaining for each time period for the sample without culture.

physchem = conditions: pH 7.4
Procedure: (§6) A PRISMA HT solution was diluted in distilled water at a ratio of 1:40, and then used as a test buffer by adjusting the pH to 7.4.
(§7) 10 mL of the prepared test material was diluted in 190 μL of isopropyl alcohol and prepared. In addition, 75 mL of the test solution and 70 mL of isopropyl alcohol were mixed to be used as a blank sample, and 5 mL of the test material diluted in isopropyl alcohol was added to the blank sample. After the diluted sample was mixed, the absorbance was measured and used as an initial test value. […] Thereafter, the precipitate was removed from the sample using a filter plate, 74 mL of the filtered sample was added with 75 mL of isopropyl alcohol, and then the absorbance was measured and used as the sample value.
(§8) The solubility value of the test material was analyzed using a msol Explore (Solubility explorer program) after measuring the absorbance of each sample through a microplate reader. The average and standard deviation of the experimental values (n=3) repeated three times were calculated using the Excel program.

AMPK phosphorylation [4] = experiment: Concentration dependence of AMPK phosphorylation activity; format: cell-based, mouse; conditions: 3T3-L1, 0, 0.01, 0.1, 1, 10, and 100 μM, 24 hours
Excerpt: Thereafter, the protein was extracted and the effect of the peptoid derivative on AMPK phosphorylation in a concentration-dependent manner was confirmed by Western blot.

in vitro [5] = conditions: human, plasma
Procedure: as §4, §5

in vitro [6] = conditions: human, microsomes, pH 7.4
Procedure: as §2
(§9) The HPLC column was used with a Kinetex C18 column (2.1×100 mm, 1.7 μm particle size; Phenomenex, USA), and the mobile phase was distilled water (A) containing 0.1% formic acid and acetonitrile (B) containing 0.1% formic acid. TurboSpray Ionization was used as an ion source for MS/MS, and a triple quadruple type was used as a mass spectrometer. The produced metabolites were quantified using a multiple reaction monitoring (MRM) quantitative mode, and data analysis was performed using Analyst software (version 1.6.1).

in vitro [7] = conditions: rat, microsomes, pH 7.4
Procedure: as §2, §3

CYP2C9 = CYP2C9 (Homo sapiens, UniProt P11712); experiment: CYP inhibition assay, CYP2C9; conditions: 10 μM
Chain of CYP2C9 (P11712 whole entry): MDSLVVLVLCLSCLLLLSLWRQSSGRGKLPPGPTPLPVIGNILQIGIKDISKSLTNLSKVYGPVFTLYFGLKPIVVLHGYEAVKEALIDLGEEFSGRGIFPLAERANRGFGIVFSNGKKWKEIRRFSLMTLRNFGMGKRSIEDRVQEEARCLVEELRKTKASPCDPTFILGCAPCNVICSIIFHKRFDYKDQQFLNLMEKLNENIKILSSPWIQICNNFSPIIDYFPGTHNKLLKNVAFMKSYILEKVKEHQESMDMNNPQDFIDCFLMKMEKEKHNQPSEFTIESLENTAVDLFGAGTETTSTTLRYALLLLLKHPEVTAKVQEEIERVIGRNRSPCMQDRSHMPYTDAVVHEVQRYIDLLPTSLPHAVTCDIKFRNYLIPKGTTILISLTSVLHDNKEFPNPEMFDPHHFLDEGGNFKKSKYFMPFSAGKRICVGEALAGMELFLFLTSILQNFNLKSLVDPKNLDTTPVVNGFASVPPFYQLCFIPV
Procedure: (§1) Metabolites of each CYP isoenzyme indicator drug produced through the reaction were analyzed by LC-MS/MS using the Shimadzu Nexera XR system and TSQ vantage (Thermo).

Solubility test = conditions: test buffer pH 7.4, DMSO test standard solution, room temperature 24 hours, n=3
Procedure: as §6, §7, §8

[8] = Metabolic stability test, mouse liver microsomes; conditions: mouse liver microsomes 0.5 mg/ml, 1 μM, NADPH, 37° C.
Procedure: as §2, §3

CYP2C19 = CYP2C19 (Homo sapiens, UniProt P33261); experiment: CYP inhibition assay, CYP2C19; conditions: 10 μM
Chain of CYP2C19 (P33261 whole entry): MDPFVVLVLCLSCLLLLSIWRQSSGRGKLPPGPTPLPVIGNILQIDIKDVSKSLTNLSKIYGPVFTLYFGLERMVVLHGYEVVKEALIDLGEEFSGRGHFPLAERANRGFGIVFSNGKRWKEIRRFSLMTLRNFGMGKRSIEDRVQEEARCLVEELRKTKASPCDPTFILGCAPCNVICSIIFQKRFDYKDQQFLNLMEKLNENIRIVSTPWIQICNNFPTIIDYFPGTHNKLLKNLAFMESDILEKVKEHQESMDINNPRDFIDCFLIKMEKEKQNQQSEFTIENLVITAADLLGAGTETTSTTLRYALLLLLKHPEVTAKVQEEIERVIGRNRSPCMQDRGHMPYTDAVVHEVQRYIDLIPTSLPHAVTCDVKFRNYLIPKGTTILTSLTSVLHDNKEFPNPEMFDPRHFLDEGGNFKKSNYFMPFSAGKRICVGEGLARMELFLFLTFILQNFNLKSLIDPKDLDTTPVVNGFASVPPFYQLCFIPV
Procedure: as §1

[9] = Metabolic stability test, rat liver microsomes; conditions: rat liver microsomes 0.5 mg/ml, 1 μM, NADPH, 37° C.
Procedure: as §2, §3

[10] = Metabolic stability test, human liver microsomes; conditions: human liver microsomes 0.5 mg/ml, 1 μM, NADPH, 37° C.
Procedure: as §2, §9

[11] = Plasma stability test, rat plasma; conditions: 1 μM, 37° C.
Procedure: as §4, §5

[12] = Plasma stability test, human plasma; conditions: 1 μM, 37° C.
Procedure: as §4, §5

CYP1A2 = target: T2, CYP1A2 (Homo sapiens, UniProt P05177); experiment: CYP inhibition assay, CYP1A2; conditions: human liver microsomes 0.25 mg/ml, 10 μM, 15 minutes
T2 sequence (P05177 1-516): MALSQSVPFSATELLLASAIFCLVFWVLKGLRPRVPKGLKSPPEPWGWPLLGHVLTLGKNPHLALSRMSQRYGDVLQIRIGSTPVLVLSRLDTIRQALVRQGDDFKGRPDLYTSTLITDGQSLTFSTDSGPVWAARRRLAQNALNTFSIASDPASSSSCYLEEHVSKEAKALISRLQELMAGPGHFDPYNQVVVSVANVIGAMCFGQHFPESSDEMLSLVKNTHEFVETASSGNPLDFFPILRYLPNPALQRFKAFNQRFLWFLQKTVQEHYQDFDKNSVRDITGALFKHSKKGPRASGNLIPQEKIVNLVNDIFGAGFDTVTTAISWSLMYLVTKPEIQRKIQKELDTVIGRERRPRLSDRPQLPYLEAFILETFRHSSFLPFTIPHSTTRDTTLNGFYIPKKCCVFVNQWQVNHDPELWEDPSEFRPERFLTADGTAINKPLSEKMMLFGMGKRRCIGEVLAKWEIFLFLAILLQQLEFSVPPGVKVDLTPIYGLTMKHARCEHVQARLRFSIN
Procedure: as §1

[13] = human liver microsomes 0.25 mg/ml, 15 minutes
[14] = human, microsomes, 15 min, pH 7.4

remaining at 0.5 h, 1 μM (in vitro [2]) [%]	remaining at 0.5 h, 1 μM (in vitro [3]) [%]	remaining at 2 h, 1 μM (in vitro [3]) [%]	solubility at 24 h (physchem) [µg/mL]	remaining at 0.5 h, 1 μM (in vitro [5]) [%]	remaining at 2 h, 1 μM (in vitro [5]) [%]	remaining at 0.5 h, 1 μM (in vitro [6]) [%]	remaining at 0.5 h, 1 μM (in vitro [7]) [%]	Plasma stability (% remaining) Rat, 30 m [11] [% remaining]	Plasma stability (% remaining) Rat, 120 m [11] [% remaining]	Structure (SMILES)	effect of increasing AMPK phosphorylation activity compared to APN5 (AMPK phosphorylation [1])	AMPK phosphorylation activity (fold change) (AMPK phosphorylation [1])	AMPK phosphorylation activity after knockdown of the adiponectin receptor 1 (adiponectin receptor 1)	other results
–	–	–	–	–	–	–	–	–	–	NCC(=O)N(CC(=O)N(CC(=O)N(CC(=O)N(CC(N)=O)Cc1ccccc1)Cc1ccc(O)cc1)Cc1ccc(O)cc1)C1CCC1 [DS-15, Ngly-Ncba-Ntyr-Ntyr-Nbn-NH2] (H-G[N(cBu)Gly][Gly(N-4-hydroxybenzyl)][Gly(N-4-hydroxybenzyl)][Nphe]-NH2)	significant effect of increasing AMPK phosphorylation activity	1.2	reduced the AMPK phosphorylation activity	–
75.5	> 100	99.5	333 (≈ 495 µM)	> 100	> 100	87.1	79.8	–	–	NCC(=O)N(CC(=O)N(CC(=O)N(CC(=O)N(CC(N)=O)Cc1ccccc1)Cc1ccc(O)cc1)Cc1ccc(O)cc1)C1CCCC1 [DS-16, Ngly-Ncpe-Ntyr-Ntyr-Nbn-NH2] (H-G[Gly(N-cPent)][Gly(N-4-hydroxybenzyl)][Gly(N-4-hydroxybenzyl)][Nphe]-NH2)	significant effect of increasing AMPK phosphorylation activity	1.4	reduced the AMPK phosphorylation activity	concentration dependence of AMPK phosphorylation activity (AMPK phosphorylation [4]): increased AMPK phosphorylation activity in a concentration-dependent manner
76	> 100	95.9	325 (≈ 495 µM)	98.6	98.4	93.6	80.9	–	–	NCC(=O)N(CC(=O)N(CC(=O)N(CC(=O)N(CC(N)=O)Cc1ccccc1)Cc1ccc(O)cc1)Cc1ccccc1)C1CCCC1 [DS-25, Ngly-Ncpe-Nbn-Ntyr-Nbn-NH2] (H-G[Gly(N-cPent)][Nphe][Gly(N-4-hydroxybenzyl)][Nphe]-NH2)	significant effect of increasing AMPK phosphorylation activity	2.1	reduced the AMPK phosphorylation activity	concentration dependence of AMPK phosphorylation activity (AMPK phosphorylation [4]): increased AMPK phosphorylation activity in a concentration-dependent manner
72.2	> 100	> 100	–	> 100	> 100	93.7	83.7	–	–	NCC(=O)N(CC(=O)N(CC(=O)N(CC(=O)N(CC(N)=O)Cc1ccccc1)Cc1ccc(O)cc1)Cc1ccc(O)cc1)CC1CC1 [DS-31, Ngly-Ncpr-Ntyr-Ntyr-Nbn-NH2] (H-G[Gly(NCH2cPr)][Gly(N-4-hydroxybenzyl)][Gly(N-4-hydroxybenzyl)][Nphe]-NH2)	–	–	–	–
–	–	–	–	–	–	–	–	>100	>100	O=C(COc1ccc(C(=O)c2ccccc2)cc1)NC1CCN(Cc2ccccc2)CC1 [DS-43, adiporon]	–	1.2	–	CYP inhibition (% of control activity) CYP2C9 (CYP2C9; [13]): 57.8 % of control activity; Average DMSO solubility (Solubility test): 43.7 µg/mL; Metabolic stability (% remaining) Mouse, 30 m [8]: 3.1 % remaining; CYP inhibition (% of control activity) CYP2C19 (CYP2C19; [13]): 66.0 % of control activity; Metabolic stability (% remaining) Rat, 30 m [9]: 2.3 % remaining; Metabolic stability (% remaining) Human, 30 m [10]: 54.9 % remaining; Plasma stability (% remaining) Human, 30 m [12]: >100 % remaining; Plasma stability (% remaining) Human, 120 m [12]: >100 % remaining
95.3	> 100	> 100	351 (≈ 495 µM)	> 100	> 100	77.2	73	–	–	NCC(=O)N(CC(=O)N(CC(=O)N(CC(=O)N(CC(N)=O)Cc1ccc(C(F)(F)F)cc1)Cc1ccccc1)Cc1ccccc1)C1CCCC1 [DS-47, Ngly-Ncpe-Nbn-Ntfb-Nbn-NH2] (H-G[Gly(N-cPent)][Nphe][Nphe][X1]-NH2)	significant effect of increasing AMPK phosphorylation activity	1.6	reduced the AMPK phosphorylation activity	–
84.4	> 100	> 100	73.3 (≈ 93.8 µM)	> 100	> 100	> 100	> 100	–	–	NCC(=O)N(CCC(=O)O)CC(=O)N(CC(=O)N(CC(=O)N(CC(N)=O)Cc1ccccc1)Cc1ccc(C(F)(F)F)cc1)Cc1ccc(C(F)(F)F)cc1 [DS-71, Ngly-Nasp-Ntfp-Ntfp-Nbn-NH2]	–	–	–	–
–	–	–	–	–	–	–	–	27.9	<1	CCOC(=O)[C@H](CCc1ccccc1)N[C@@H](C)C(=O)N1CCC[C@H]1C(=O)O [Enalapril]	–	–	–	Plasma stability (% remaining) Human, 30 m [12]: >100 % remaining; Plasma stability (% remaining) Human, 120 m [12]: 97.4 % remaining
–	–	–	–	–	–	–	–	–	–	CC(=O)N1CCN(c2ccc(OCC3COC(Cn4ccnc4)(c4ccc(Cl)cc4Cl)O3)cc2)CC1 (stereo not drawn) [Ketoconazole]	–	–	–	CYP inhibition (% of control activity) CYP2C9 (CYP2C9; [14]): >100 % of control activity; CYP inhibition (% of control activity) CYP2C19 (CYP2C19; [14]): >100 % of control activity; CYP inhibition (% of control activity) CYP1A2 (CYP1A2): 97.2 % of control activity
–	–	–	–	–	–	–	–	90.3	57.4	CCN(CC)CCOC(=O)c1ccc(N)cc1 [Procaine]	–	–	–	Plasma stability (% remaining) Human, 30 m column, cell marked (5 min) ([12]; 5 min as printed in the cell): 2.8 (5 min) % remaining; Plasma stability (% remaining) Human, 120 m column, cell marked (5 min) ([12]; 5 min as printed in the cell): <1 (5 min) % remaining
